Measurements taken from patent US6525001B1, “Substituted pyrimidine and pyridine herbicides” (Mid-American Commercialization Corporation, priority 1997, dated 2003).

Experiments:
Assay type in all cases: in vivo
[1] = system: field bindweed (Convolvulus arvensis); assay: Test C; parameters: key: 0 was no effect; 100 was complete control
[2] = system: hairy beggarticks (Bidens pilosa); assay: Test C
[3] = system: johnsongrass (Sorghum halepense); assay: Test C
[4] = system: purple nutsedge (Cyperus rotundus); assay: Test C; parameters: key: 0 was no effect; 100 was complete control
soybean (Glycine max) = assay: Test C
[5] = system: sandbur (Cenchrus echinatus); assay: Test E pre-/postemergence/post directed; parameters: key: 0 is no injury; 100 is complete control
In short: (§1)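 Greenhouse pot-grown plants; compound in non-phytotoxic solvent with surfactant applied preemergence to soil within one day of planting, postemergence at two to four leaf stage (three to twenty cm), or post-directed to plant base and soil. Visual injury rated 13 to 21 days after application, 0 (none) to 100 (complete control).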

[6] = system: bermudagrass (Cynodon dactylon); assay: Test E pre-/postemergence/post directed; parameters: key: 0 is no effect; 100 is complete control; settings: PREEMERGENCE
In short: as §1

[7] = system: common groundsel (Senecio vulgaris); assay: Test E pre-/postemergence/post directed; parameters: key: 0 is no effect; 100 is complete control; settings: PREEMERGENCE
In short: as §1

[8] = system: common purslane (Portulaca oleracea); assay: Test E pre-/postemergence/post directed; parameters: key: 0 is no effect; 100 is complete control
In short: as §1

[9] = system: common ragweed (Ambrosia elatior); assay: Test E pre-/postemergence/post directed; parameters: key: 0 is no effect; 100 is complete control; settings: PREEMERGENCE
In short: as §1

[10] = system: dallisgrass (Paspalum dilatatum); assay: Test E pre-/postemergence/post directed; parameters: key: 0 is no effect; 100 is complete control
In short: as §1

[11] = system: goosegrass (Eleusine indica); assay: Test E pre-/postemergence/post directed; parameters: key: 0 is no effect; 100 is complete control
In short: as §1

[12] = system: guineagrass (Panicum maximum); assay: Test E pre-/postemergence/post directed; parameters: key: 0 is no effect; 100 is complete control
In short: as §1

[13] = system: large crabgrass (Digitaria sanguinalis); assay: Test E pre-/postemergence/post directed; parameters: key: 0 is no effect; 100 is complete control; settings: PREEMERGENCE
In short: as §1

[14] = system: sourgrass (Trichachne insularis); assay: Test E pre-/postemergence/post directed; parameters: key: 0 is no effect; 100 is complete control
In short: as §1

[15] = system: surinam grass (Brachiaria decumbens); assay: Test E pre-/postemergence/post directed; parameters: key: 0 is no effect; 100 is complete control; settings: PREEMERGENCE, Rate 250 g/ha
In short: as §1

[16] = system: tall mallow (Malva sylvestris); assay: Test E pre-/postemergence/post directed; parameters: key: 0 is no effect; 100 is complete control; settings: PREEMERGENCE
In short: as §1

Cc1cnc(-c2ccc(C(F)(F)F)cc2)nc1Cn1ccc(C(F)(F)F)n1 [compound 9]
Plant response rating, Field bindweed ([1]; POSTEMERGENCE, Rate 35 g/ha): 60 | Plant response rating, Field bindweed ([1]; POSTEMERGENCE, Rate 70 g/ha): 70 | Plant response rating, Field bindweed ([1]; POSTEMERGENCE, Rate 140 g/ha): 80 | Plant response rating, Field bindweed ([1]; PREEMERGENCE, Rate 35 g/ha): 50 | Plant response rating, Field bindweed ([1]; PREEMERGENCE, Rate 70 g/ha): 100 | Plant response rating, Field bindweed ([1]; PREEMERGENCE, Rate 140 g/ha): 90 | Plant response rating, H. beggarticks ([2]; POSTEMERGENCE, Rate 35 g/ha): 65 | Plant response rating, H. beggarticks ([2]; POSTEMERGENCE, Rate 70 g/ha): 70 | Plant response rating, H. beggarticks ([2]; POSTEMERGENCE, Rate 140 g/ha): 80 | Plant response rating, H. beggarticks ([2]; PREEMERGENCE, Rate 35 g/ha): 85 | Plant response rating, H. beggarticks ([2]; PREEMERGENCE, Rate 70 g/ha): 85 | Plant response rating, H. beggarticks ([2]; PREEMERGENCE, Rate 140 g/ha): 85 | Plant response rating, Johnsongrass ([3]; POSTEMERGENCE, Rate 35 g/ha): 10 | Plant response rating, Johnsongrass ([3]; POSTEMERGENCE, Rate 140 g/ha): 50 | Plant response rating, Johnsongrass ([3]; PREEMERGENCE, Rate 35 g/ha): 65 | Plant response rating, Johnsongrass ([3]; PREEMERGENCE, Rate 70 g/ha): 85 | Plant response rating, Johnsongrass ([3]; PREEMERGENCE, Rate 140 g/ha): 95 | Plant response rating, Purple nutsedge ([4]; POSTEMERGENCE, Rate 35 g/ha): 5 | Plant response rating, Purple nutsedge ([4]; POSTEMERGENCE, Rate 70 g/ha): 5 | Plant response rating, Purple nutsedge ([4]; POSTEMERGENCE, Rate 140 g/ha): 5 | Plant response rating, Purple nutsedge ([4]; PREEMERGENCE, Rate 35 g/ha): 0 | Plant response rating, Purple nutsedge ([4]; PREEMERGENCE, Rate 70 g/ha): 0 | Plant response rating, Purple nutsedge ([4]; PREEMERGENCE, Rate 140 g/ha): 0 | Plant response rating, Soybean (soybean (Glycine max); POSTEMERGENCE, Rate 35 g/ha): 40 | Plant response rating, Soybean (soybean (Glycine max); POSTEMERGENCE, Rate 70 g/ha): 50 | Plant response rating, Soybean (soybean (Glycine max); POSTEMERGENCE, Rate 140 g/ha): 50 | Plant response rating, Soybean (soybean (Glycine max); PREEMERGENCE, Rate 35 g/ha): 20 | Plant response rating, Soybean (soybean (Glycine max); PREEMERGENCE, Rate 70 g/ha): 20 | Plant response rating, Soybean (soybean (Glycine max); PREEMERGENCE, Rate 140 g/ha): 25 | Plant response rating, Sandbur ([5]; POSTEMERGENCE, Rate 125 g/ha): 0 | Plant response rating, Sandbur ([5]; POSTEMERGENCE, Rate 250 g/ha): 0 | Plant response rating, Sandbur ([5]; PREEMERGENCE, Rate 32 g/ha): 0 | Plant response rating, Sandbur ([5]; PREEMERGENCE, Rate 64 g/ha): 0 | Plant response rating, Bermudagrass ([6]; Rate 125 g/ha): 100 | Plant response rating, Bermudagrass ([6]; Rate 250 g/ha): 100 | Plant response rating, Com. groundsel ([7]; Rate 64 g/ha): 100 | Plant response rating, Com. groundsel ([7]; Rate 125 g/ha): 100 | Plant response rating, Com. groundsel ([7]; Rate 250 g/ha): 100 | Plant response rating, Com. purslane ([8]; POSTEMERGENCE, Rate 125 g/ha): 80 | Plant response rating, Com. purslane ([8]; POSTEMERGENCE, Rate 250 g/ha): 80 | Plant response rating, Com. purslane ([8]; PREEMERGENCE, Rate 32 g/ha): 100 | Plant response rating, Com. purslane ([8]; PREEMERGENCE, Rate 64 g/ha): 100 | Plant response rating, Com. purslane ([8]; PREEMERGENCE, Rate 125 g/ha): 100 | Plant response rating, Com. purslane ([8]; PREEMERGENCE, Rate 250 g/ha): 100 | Plant response rating, Com. ragweed ([9]; Rate 64 g/ha): 100 | Plant response rating, Com. ragweed ([9]; Rate 250 g/ha): 100 | Plant response rating, Dallisgrass ([10]; POSTEMERGENCE, Rate 125 g/ha): 10 | Plant response rating, Dallisgrass ([10]; POSTEMERGENCE, Rate 250 g/ha): 20 | Plant response rating, Dallisgrass ([10]; PREEMERGENCE, Rate 32 g/ha): 85 | Plant response rating, Dallisgrass ([10]; PREEMERGENCE, Rate 64 g/ha): 100 | Plant response rating, Dallisgrass ([10]; PREEMERGENCE, Rate 125 g/ha): 100 | Plant response rating, Dallisgrass ([10]; PREEMERGENCE, Rate 250 g/ha): 100 | Plant response rating, Goosegrass ([11]; POSTEMERGENCE, Rate 125 g/ha): 5 | Plant response rating, Goosegrass ([11]; POSTEMERGENCE, Rate 250 g/ha): 10 | Plant response rating, Goosegrass ([11]; PREEMERGENCE, Rate 32 g/ha): 90 | Plant response rating, Goosegrass ([11]; PREEMERGENCE, Rate 64 g/ha): 100 | Plant response rating, Goosegrass ([11]; PREEMERGENCE, Rate 125 g/ha): 100 | Plant response rating, Goosegrass ([11]; PREEMERGENCE, Rate 250 g/ha): 100 | Plant response rating, Guineagrass ([12]; POSTEMERGENCE, Rate 125 g/ha): 35 | Plant response rating, Guineagrass ([12]; POSTEMERGENCE, Rate 250 g/ha): 35 | Plant response rating, Guineagrass ([12]; PREEMERGENCE, Rate 32 g/ha): 20 | Plant response rating, Guineagrass ([12]; PREEMERGENCE, Rate 64 g/ha): 85 | Plant response rating, Guineagrass ([12]; PREEMERGENCE, Rate 125 g/ha): 90 | Plant response rating, Guineagrass ([12]; PREEMERGENCE, Rate 250 g/ha): 100 | Plant response rating, Large crabgrass ([13]; Rate 64 g/ha): 100 | Plant response rating, Large crabgrass ([13]; Rate 125 g/ha): 100 | Plant response rating, Large crabgrass ([13]; Rate 250 g/ha): 100 | Plant response rating, Sourgrass ([14]; POSTEMERGENCE, Rate 125 g/ha): 10 | Plant response rating, Sourgrass ([14]; POSTEMERGENCE, Rate 250 g/ha): 30 | Plant response rating, Sourgrass ([14]; PREEMERGENCE, Rate 32 g/ha): 85 | Plant response rating, Sourgrass ([14]; PREEMERGENCE, Rate 64 g/ha): 100 | Plant response rating, Sourgrass ([14]; PREEMERGENCE, Rate 125 g/ha): 100 | Plant response rating, Sourgrass ([14]; PREEMERGENCE, Rate 250 g/ha): 100 | Plant response rating, Surinam grass [15]: 100 | Plant response rating, Tall Mallow ([16]; Rate 32 g/ha): 100 | Plant response rating, Tall Mallow ([16]; Rate 64 g/ha): 100 | Plant response rating, Tall Mallow ([16]; Rate 125 g/ha): 100 | Plant response rating, Tall Mallow ([16]; Rate 250 g/ha): 100
